This note sets out measurements from US20240238268A1, “TREATMENTS AND METHODS FOR TREATING ALZHEIMER'S DISEASE” (Board of Supervisors of Louisiana State University and …, priority 2021, published 2024).

What all share (assay type): in vivo, mouse
In one assay the test system is aged 3xTg-AD female mice. Put plainly: Regional cortical cerebral blood flow, laser speckle contrast imaging. The conditions noted are these: 3xTg-AD mice; 30 mg/kg, IP, 7 days; untreated C57BL/6J = 100%. How it is done:
Surgical Preparation and Anesthetic Procedure: Mice were anesthetized with 4% isoflurane (Cat. No. 21295098, Patterson Veterinary, Greeley, CO) and a mixture of O2 and N2O (30:70) via mask. Hair was shaved at the site of surgery (from the nape up to the eyes). Body temperature was maintained at 37° C. by a rodent heating pad with anal probe as a temperature reference (ThermoStar, RWD Life Science, San Diego, CA). Anesthesia was maintained by lowering isoflurane from 4% to 1%.
Thinned-skull preparation: Mice were placed in a stereotaxic frame to stabilize the skull and artificial tears (Patterson Veterinary, Greeley, CO) was applied in each eye. Dissection scissors and forceps were used to reveal the skull. A high-speed dental drill (RWD Life Science, San Diego, CA) was used to thin the skull creating a small window (1 mm in diameter) approximately 2 mm rostral and 1 mm lateral to the lambda, with saline irrigation to prevent overheating of the skull tissue. Laser speckle contrast imaging or two-photon laser scanning microscopy analyses were conducted following this preparation.
Laser speckle contrast imaging: Cerebral microvasculature was imaged by utilizing the thin skull preparation method. After thinning the skull, the mouse was placed in a stereotaxic apparatus. […]

A further assay relates to NOTCH1. Put plainly: NOTCH1 protein level in brain, capillary-based immunoassay. The note with it: aged 3xTg-AD female mice; TP-064 30 mg/kg, 7 days, IP or AAV knockdown. How it is done: NOTCH1 protein level in cortex, FIG. 13A, and hippocampus, FIG. 13B, was decreased in aged 3xTg-AD female mice v. male counterparts. Treatment with specific PRMT4 specific inhibitor (TP-064, 30 mg/kg, 7 days, IP) or AAV knockdown of PRMT4 enhanced NOTCH1 protein level in cortex, […], and hippocampus, […], in aged 3xTg-AD female mice. Relative NOTCH1 protein (˜110 kDa) level was measured by capillary-based immunoassay and normalized to total protein. * p<0.05 v. control male mice evaluated by unpaired t-test in FIGS. 13A and 13B. * p<0.05 compared to C57, #p<0.05 compared to 3xTg-AD+TP-064, $p<0.05 compared to 3xTg-AD+AAV, evaluated by one-way ANOVA with Tukey's post-hoc analyses in FIGS. 13C and 13D.
FIGS. 16A-16G show NOTCH1 inhibition (via crenigacestat) decreased ZO-1 and occluding and AAV knockdown of PRMT4 enhanced ZO-1 and occludin. […] C57 female mice. FIGS. 16B and 16C show crenigacestat (10 mg/kg, IP, 7 days) reduced NOTCH1 (110 kDa) protein level in the cortex and hippocampus of aged C57 female mice. AAV knockdown of PRMT4 increased NOTCH1 protein level. FIGS. 16D-16G show ZO-1 (220 kDa), and occludin (60 kDa) tight junctional proteins were decreased in the cortex and hippocampus in presence of NOTCH1 inhibitor in C57. PRMT4-AAV increased the expression of ZO-1 and occludin in aged 3xTg-AD female mice. Protein level was measured by capillary-based immunoassay and normalized to total protein. * p<0.05 compared to C57, #p<0.05 compared to 3xTg-AD, $p<0.05 compared to 3xTg-AD+AAV as evaluated by one-way ANOVA with Tukey's post-hoc analyses.
Capillary-phoresis immunoassay via ProteinSimple®: Quantification of all protein targets was achieved using Simple Western analysis in a Jess™ apparatus per the manufacturer's protocol (ProteinSimple, Bio-techne, Minneapolis, MN). […] Following homogenization and centrifugation (10,000×g, 5 min, 4° C.), protein concentration was determined in tissue protein supernatant samples using DC Protein Assay (Cat. No. 5000112, Bio-Rad Laboratories, Hercules, California) according to manufacturer instructions. […] Antibody diluent (ProteinSimple, Bio-techne, Minneapolis, MN) was used for all antibody dilutions as follows: PRMT4 (1:50, RRID: AB_2068436), PRMT6 (1:100, Cell Signaling Technology cat. 14641), eNOS (1:200, RRID: AB_10850618), nNOS (1:100, RRID: AB_2152488), iNOS (1:100, RRID: AB_10000625), DDAH2 (1:50, RRID: AB_2640442) Antibodies were detected using HRP-conjugated secondary anti-rabbit, and -mouse. Relative protein levels were calculated by measuring the area under the peak of a chemiluminescent chromatogram and normalized to total capillary chemiluminescence for a given sample. […]

The next assay has as its system C57 mice. Put plainly: Neurovascular coupling: microvessel diameter, two-photon laser scanning microscopy, C57 mice. The note with it: decreased PRMT4 via TP-064/PRMT4-AAV.

With `CNCCN1CCC(c2cc(CN(C)C(=O)c3cccc(Oc4ccccc4)c3)ccn2)CC1` [TP-064, N-Methyl-N-((2-(1-(2-(methylamino)ethyl)piperidin-4-yl)pyridin-4-yl)methyl)-3-phenoxybenzamide], the “regional cortical CBF” value in the assay with aged 3xTg-AD female mice is 194%±8.6. Moreover, in the assay with NOTCH1, the “NOTCH1 protein level in cortex” value is on record as “enhanced” and the “NOTCH1 protein level in hippocampus” value is “enhanced”. The vascular diameters result in the assay with C57 mice is given as “did not affect”.
